Assay [1] can be described thus: Binding affinity to benzodiazepine binding site of GABAA receptor.
A further assay deals with Cannabinoid receptor 2 (Homo sapiens, UniProt P34972). In words: Displacement of [3H]CP55940 from CB2 receptor. (In general: Displacement assays read how much labelled ligand stays bound in the presence of the test substance.)
For a further assay, the target named is Cannabinoid receptor 1 (Homo sapiens, UniProt P21554). In words: Displacement of [3H]CP55940 from CB1 receptor.
Chain of Cannabinoid receptor 1 (P21554 whole entry): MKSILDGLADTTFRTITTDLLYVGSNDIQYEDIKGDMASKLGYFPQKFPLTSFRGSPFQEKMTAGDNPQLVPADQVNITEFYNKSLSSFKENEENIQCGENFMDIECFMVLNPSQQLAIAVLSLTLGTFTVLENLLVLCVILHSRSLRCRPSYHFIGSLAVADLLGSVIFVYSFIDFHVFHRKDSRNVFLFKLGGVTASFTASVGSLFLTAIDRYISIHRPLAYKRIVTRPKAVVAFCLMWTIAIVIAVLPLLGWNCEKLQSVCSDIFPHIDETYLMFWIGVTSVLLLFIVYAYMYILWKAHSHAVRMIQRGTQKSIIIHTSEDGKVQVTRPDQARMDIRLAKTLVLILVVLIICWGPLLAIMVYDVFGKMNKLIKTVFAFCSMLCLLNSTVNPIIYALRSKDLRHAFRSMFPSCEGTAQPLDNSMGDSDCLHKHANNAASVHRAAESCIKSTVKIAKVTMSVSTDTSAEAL
The target of another assay is Translocator protein (Rattus norvegicus, UniProt P16257).
Chain of Translocator protein (P16257 whole entry, looked up): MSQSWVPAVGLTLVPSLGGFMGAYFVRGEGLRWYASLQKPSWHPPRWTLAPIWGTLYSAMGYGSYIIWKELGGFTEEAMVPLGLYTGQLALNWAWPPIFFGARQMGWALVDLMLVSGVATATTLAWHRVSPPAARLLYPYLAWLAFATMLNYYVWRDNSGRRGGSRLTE
For assay [2], the target named is Histamine H4 receptor (Homo sapiens) (UniProt Q9H3N8). The note with it: 10 uM.
Assay [3] deals with Histamine H3 receptor (Homo sapiens) (UniProt Q9Y5N1). The note with it: 10 uM.
Assay [4] has as its target Alpha-2B adrenergic receptor (Homo sapiens) (UniProt P18089). The note with it: 10 uM.
For assay [5], the target named is 5-hydroxytryptamine receptor 6 (Homo sapiens) (UniProt P50406). The note with it: 10 uM.
Chain of 5-hydroxytryptamine receptor 6 (Homo sapiens) (P50406 whole entry): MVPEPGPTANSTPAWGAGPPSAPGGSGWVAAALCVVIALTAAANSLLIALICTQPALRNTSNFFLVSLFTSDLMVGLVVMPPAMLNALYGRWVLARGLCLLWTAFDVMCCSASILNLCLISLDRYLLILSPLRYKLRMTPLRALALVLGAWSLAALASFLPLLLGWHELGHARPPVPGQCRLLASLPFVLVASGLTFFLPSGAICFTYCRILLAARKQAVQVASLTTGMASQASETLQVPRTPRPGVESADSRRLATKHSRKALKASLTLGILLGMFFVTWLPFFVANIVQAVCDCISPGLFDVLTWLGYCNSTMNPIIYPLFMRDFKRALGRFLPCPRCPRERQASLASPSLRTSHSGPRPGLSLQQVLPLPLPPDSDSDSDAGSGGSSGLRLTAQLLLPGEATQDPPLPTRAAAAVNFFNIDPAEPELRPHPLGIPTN
Assay [6] deals with Muscarinic acetylcholine receptor M3 (Homo sapiens) (UniProt P20309). As to conditions: 10 uM.
Assay [7] deals with Vasopressin V1b receptor (Homo sapiens) (UniProt P47901). As to conditions: 10 uM.
Assay [8] deals with Sigma non-opioid intracellular receptor 1 (Homo sapiens) (UniProt Q99720). As to conditions: 10 uM.
Chain of Sigma non-opioid intracellular receptor 1 (Homo sapiens) (Q99720 whole entry): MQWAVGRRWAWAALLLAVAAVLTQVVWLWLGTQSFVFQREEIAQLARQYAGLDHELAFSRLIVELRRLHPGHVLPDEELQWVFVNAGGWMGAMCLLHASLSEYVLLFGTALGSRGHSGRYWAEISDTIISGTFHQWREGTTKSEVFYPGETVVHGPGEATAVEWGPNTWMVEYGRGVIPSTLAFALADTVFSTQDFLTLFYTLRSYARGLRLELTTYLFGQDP
Assay [9] deals with 5-hydroxytryptamine receptor 1A (Homo sapiens) (UniProt P08908). The note with it: 10 uM.
In assay [10] the target is Muscarinic acetylcholine receptor M2 (Homo sapiens) (UniProt P08172). As to conditions: 10 uM.
The target of assay [11] is D(3) dopamine receptor (Homo sapiens) (UniProt P35462). As to conditions: 10 uM.
The target of assay [12] is D(1A) dopamine receptor (Homo sapiens) (UniProt P21728). As to conditions: 10 uM.
The target in assay [13] is 5-hydroxytryptamine receptor 1E (Homo sapiens) (UniProt P28566). The note with it: 10 uM.
Assay [14] concerns the target Alpha-1B adrenergic receptor (Homo sapiens) (UniProt P35368). The note with it: 10 uM.
In assay [15] the target is Alpha-2C adrenergic receptor (Homo sapiens) (UniProt P18825). As to conditions: 10 uM.
Chain of Alpha-2C adrenergic receptor (Homo sapiens) (P18825 whole entry): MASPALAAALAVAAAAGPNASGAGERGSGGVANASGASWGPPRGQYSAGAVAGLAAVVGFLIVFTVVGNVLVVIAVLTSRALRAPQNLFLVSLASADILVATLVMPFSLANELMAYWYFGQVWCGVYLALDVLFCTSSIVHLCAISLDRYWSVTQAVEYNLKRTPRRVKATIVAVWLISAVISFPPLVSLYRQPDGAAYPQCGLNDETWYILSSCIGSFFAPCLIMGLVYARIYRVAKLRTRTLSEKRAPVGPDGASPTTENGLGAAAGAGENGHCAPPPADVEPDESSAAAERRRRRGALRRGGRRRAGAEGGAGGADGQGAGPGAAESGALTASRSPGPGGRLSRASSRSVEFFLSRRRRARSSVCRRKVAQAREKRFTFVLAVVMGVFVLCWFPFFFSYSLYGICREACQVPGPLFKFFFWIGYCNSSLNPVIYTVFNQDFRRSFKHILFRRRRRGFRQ
Assay [16] deals with 5-hydroxytryptamine receptor 5A (Homo sapiens) (UniProt P47898). The note with it: 10 uM.
Assay [17] has as its target Beta-1 adrenergic receptor (Homo sapiens) (UniProt P08588). As to conditions: 10 uM.
In assay [18] the target is Sodium-dependent dopamine transporter (Homo sapiens) (UniProt Q01959). The note with it: 10 uM.
Assay [19] has as its target Sodium-dependent noradrenaline transporter (Homo sapiens) (UniProt P23975). The note with it: 10 uM.
In assay [20] the target is 5-hydroxytryptamine receptor 2A (Homo sapiens) (UniProt P28223). The note with it: 10 uM.
Assay [21] concerns the target T1, 5-hydroxytryptamine receptor 1D (Homo sapiens, UniProt P28221). As to conditions: 10 uM.
Assay [22] addresses Mu-type opioid receptor (Homo sapiens) (UniProt P35372). The note with it: 10 uM.
The target of assay [23] is 5-hydroxytryptamine receptor 2B (Homo sapiens) (UniProt P41595). As to conditions: 10 uM.
Assay [24] deals with T1, 5-hydroxytryptamine receptor 1D. In words: Binding affinity to 5HT1D receptor by radioligand binding assay.
Assay [25] deals with Vasopressin V1a receptor (Homo sapiens) (UniProt P37288). As to conditions: 10 uM.
The target in assay [26] is Sodium-dependent serotonin transporter (Homo sapiens) (UniProt P31645). As to conditions: 10 uM.
Assay [27] has as its target Histamine H1 receptor (Homo sapiens) (UniProt P35367). The note with it: 10 uM.
Assay [28] concerns the target 5-hydroxytryptamine receptor 3A (Homo sapiens) (UniProt P46098). As to conditions: 10 uM.
For assay [29], the target named is Muscarinic acetylcholine receptor M4 (Homo sapiens) (UniProt P08173). As to conditions: 10 uM.
Chain of Muscarinic acetylcholine receptor M4 (Homo sapiens) (P08173 whole entry): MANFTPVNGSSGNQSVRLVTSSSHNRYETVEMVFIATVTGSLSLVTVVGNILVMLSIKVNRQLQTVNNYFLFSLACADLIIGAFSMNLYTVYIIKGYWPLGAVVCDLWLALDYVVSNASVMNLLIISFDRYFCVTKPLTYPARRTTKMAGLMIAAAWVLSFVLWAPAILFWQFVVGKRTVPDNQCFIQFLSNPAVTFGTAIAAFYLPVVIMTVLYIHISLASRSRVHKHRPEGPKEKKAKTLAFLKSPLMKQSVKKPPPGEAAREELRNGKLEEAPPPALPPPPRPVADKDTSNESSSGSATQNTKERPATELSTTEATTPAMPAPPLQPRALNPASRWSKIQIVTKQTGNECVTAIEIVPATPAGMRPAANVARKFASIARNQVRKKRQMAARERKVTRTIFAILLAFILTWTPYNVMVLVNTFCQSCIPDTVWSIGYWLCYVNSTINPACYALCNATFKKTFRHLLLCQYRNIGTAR
For assay [30], the target named is Alpha-2A adrenergic receptor (Homo sapiens) (UniProt P08913). The note with it: 10 uM.
The target of assay [31] is Vasopressin V2 receptor (Homo sapiens) (UniProt P30518). As to conditions: 10 uM.
Chain of Vasopressin V2 receptor (Homo sapiens) (P30518 whole entry): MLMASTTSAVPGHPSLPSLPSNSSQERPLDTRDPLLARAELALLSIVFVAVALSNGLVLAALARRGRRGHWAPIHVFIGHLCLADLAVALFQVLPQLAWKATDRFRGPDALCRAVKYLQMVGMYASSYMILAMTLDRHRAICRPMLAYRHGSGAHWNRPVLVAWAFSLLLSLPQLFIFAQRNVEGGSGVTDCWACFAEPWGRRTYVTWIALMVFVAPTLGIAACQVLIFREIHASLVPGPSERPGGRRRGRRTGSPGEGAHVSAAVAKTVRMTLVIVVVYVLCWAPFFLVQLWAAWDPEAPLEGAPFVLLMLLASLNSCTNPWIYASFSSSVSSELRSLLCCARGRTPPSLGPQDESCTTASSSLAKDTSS
The target in assay [32] is D(4) dopamine receptor (Homo sapiens) (UniProt P21917). As to conditions: 10 uM.
Chain of D(4) dopamine receptor (Homo sapiens) (P21917 whole entry): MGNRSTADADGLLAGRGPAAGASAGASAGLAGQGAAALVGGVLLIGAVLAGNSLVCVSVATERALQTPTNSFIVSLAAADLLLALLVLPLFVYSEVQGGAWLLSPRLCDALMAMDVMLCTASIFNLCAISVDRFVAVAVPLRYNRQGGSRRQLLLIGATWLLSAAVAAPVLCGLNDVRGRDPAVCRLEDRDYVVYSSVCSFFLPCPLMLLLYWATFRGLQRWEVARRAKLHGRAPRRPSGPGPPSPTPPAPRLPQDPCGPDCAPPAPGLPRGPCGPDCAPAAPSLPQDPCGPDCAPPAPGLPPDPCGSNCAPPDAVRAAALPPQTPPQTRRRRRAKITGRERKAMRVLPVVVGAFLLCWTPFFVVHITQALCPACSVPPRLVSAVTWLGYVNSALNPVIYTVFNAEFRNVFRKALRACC
Assay [33] deals with 5-hydroxytryptamine receptor 7 (Homo sapiens) (UniProt P34969). The note with it: 10 uM.
Assay [34] addresses Delta-type opioid receptor (Homo sapiens) (UniProt P41143). As to conditions: 10 uM.
The target in assay [35] is Kappa-type opioid receptor (Homo sapiens, UniProt P41145). In words: Binding affinity to kappa opioid receptor by radioligand binding assay.
Another assay addresses D(1B) dopamine receptor (Homo sapiens, UniProt P21918). In words: Binding affinity to opamine D5 receptor by radioligand binding assay.
Assay [36] has as its target Alpha-1A adrenergic receptor (Homo sapiens) (UniProt P35348). The note with it: 10 uM.
Assay [37] has as its target Beta-3 adrenergic receptor (Homo sapiens) (UniProt P13945). The note with it: 10 uM.
Assay [38] concerns the target 5-hydroxytryptamine receptor 2C (Homo sapiens) (UniProt P28335). As to conditions: 10 uM.
Assay [39] addresses Muscarinic acetylcholine receptor M5 (Homo sapiens) (UniProt P08912). The note with it: 10 uM.
Assay [40] addresses D(2) dopamine receptor (Homo sapiens) (UniProt P14416). As to conditions: 10 uM.
The target in assay [41] is Histamine H2 receptor (Homo sapiens) (UniProt P25021). As to conditions: 10 uM.
In assay [42] the target is Muscarinic acetylcholine receptor M1 (Homo sapiens) (UniProt P11229). As to conditions: 10 uM.

The values below come from ChEMBL document CHEMBL1764973 (J Med Chem, 2011).

Broadly, the Ki is the dissociation constant of the complex between target and ligand, obtained from inhibition or displacement. A high value points to weaker binding. As usually defined, the inhibition is the relative decrease from the control value, in per cent.

Chain of Cannabinoid receptor 2 (P34972 whole entry): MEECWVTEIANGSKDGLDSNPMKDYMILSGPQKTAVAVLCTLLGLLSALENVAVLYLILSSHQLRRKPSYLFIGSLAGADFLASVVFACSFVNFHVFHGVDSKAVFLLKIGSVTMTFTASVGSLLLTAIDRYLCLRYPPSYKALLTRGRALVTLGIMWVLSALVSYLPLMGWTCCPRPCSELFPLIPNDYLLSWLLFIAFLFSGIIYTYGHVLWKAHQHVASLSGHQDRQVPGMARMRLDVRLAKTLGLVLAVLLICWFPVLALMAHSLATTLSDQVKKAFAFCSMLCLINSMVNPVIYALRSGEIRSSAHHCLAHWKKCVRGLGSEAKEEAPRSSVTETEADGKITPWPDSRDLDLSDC
T1 sequence (P28221 whole entry): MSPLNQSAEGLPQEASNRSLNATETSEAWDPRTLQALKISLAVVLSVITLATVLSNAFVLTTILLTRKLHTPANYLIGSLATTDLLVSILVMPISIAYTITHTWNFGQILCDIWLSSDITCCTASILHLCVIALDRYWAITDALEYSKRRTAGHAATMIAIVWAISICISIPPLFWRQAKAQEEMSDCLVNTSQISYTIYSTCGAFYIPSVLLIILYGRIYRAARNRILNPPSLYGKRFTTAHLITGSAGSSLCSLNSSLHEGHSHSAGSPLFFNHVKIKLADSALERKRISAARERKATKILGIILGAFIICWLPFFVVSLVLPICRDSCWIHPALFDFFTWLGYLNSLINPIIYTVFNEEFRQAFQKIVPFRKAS
Chain of Sodium-dependent noradrenaline transporter (Homo sapiens) (P23975 whole entry): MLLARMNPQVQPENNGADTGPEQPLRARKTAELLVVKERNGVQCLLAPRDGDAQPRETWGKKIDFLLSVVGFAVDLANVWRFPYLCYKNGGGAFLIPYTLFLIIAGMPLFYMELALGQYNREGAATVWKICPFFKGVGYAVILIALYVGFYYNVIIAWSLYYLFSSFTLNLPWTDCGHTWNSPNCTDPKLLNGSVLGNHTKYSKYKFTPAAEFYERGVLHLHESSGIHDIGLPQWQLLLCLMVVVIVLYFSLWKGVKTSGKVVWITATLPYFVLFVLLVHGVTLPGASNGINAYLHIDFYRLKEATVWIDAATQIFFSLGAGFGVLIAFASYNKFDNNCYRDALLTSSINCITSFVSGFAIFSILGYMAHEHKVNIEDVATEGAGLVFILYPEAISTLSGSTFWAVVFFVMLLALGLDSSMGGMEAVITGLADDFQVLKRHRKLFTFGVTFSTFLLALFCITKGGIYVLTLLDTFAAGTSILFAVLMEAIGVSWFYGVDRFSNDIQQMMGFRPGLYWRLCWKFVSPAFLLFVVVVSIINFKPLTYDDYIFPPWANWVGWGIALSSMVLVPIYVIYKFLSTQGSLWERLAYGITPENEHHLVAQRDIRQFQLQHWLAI
Chain of Beta-3 adrenergic receptor (Homo sapiens) (P13945 whole entry, looked up): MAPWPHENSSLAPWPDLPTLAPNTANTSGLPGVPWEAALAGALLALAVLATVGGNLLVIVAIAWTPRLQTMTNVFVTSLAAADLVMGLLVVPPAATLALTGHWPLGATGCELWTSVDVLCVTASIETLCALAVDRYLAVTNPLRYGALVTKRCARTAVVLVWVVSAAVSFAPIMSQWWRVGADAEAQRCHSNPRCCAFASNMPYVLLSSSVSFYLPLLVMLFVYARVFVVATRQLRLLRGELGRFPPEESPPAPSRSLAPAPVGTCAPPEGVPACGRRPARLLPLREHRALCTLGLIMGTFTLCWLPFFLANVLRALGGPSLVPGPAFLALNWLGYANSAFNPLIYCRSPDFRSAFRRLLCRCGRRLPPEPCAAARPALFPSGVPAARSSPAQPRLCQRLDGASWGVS

Consider `Cc1c(C(=O)NC2(C#N)CCOCC2)nn(-c2ccccc2Br)c1-c1ccccc1`, for which the Ki in assay [1] was over 10 µM.

`CCC(C)N(C)C(=O)c1cc2ccccc2c(-c2ccccc2Cl)n1` (stereo not drawn) [PK-11195] yielded a Ki in assay [1] of over 10 µM.

As to `Cc1c(C(=O)NN2CCCCC2)nn(-c2ccc(Cl)cc2Cl)c1-c1ccc(Cl)cc1` [RIMONABANT], the Ki in [1] is over 10 µM.

On to `Cc1c(C(=O)NC2(C#N)CCOCC2)nn(-c2ccccc2Br)c1-c1ccc(F)cc1`, for which the Ki in assay [1] is over 10 µM.

As to `N#CC1(NC(=O)c2cc(-c3ccccc3)n(-c3ccccc3Br)n2)CCOCC1`, the Ki on Cannabinoid receptor 2 was over 10000 nM; in [1], over 10 µM; at Cannabinoid receptor 1 it was 297 nM; at Translocator protein, 3110 nM.

As for `Cc1c(C(=O)NC2(C#N)CCOCC2)nn(-c2ccc(Br)cc2)c1-c1ccccc1`, the inhibition constant (Ki) is 655 nM at Cannabinoid receptor 2, over 10 µM in assay [1] and 259 nM at Cannabinoid receptor 1.

Regarding `COc1ccc(-c2c(C)c(C(=O)NC3(C#N)CCOCC3)nn2-c2cccc(Br)c2)cc1`, the figures for the inhibitory constant (Ki) (at Cannabinoid receptor 2; in assay [1]; at Cannabinoid receptor 1) were 234 nM, over 10 µM and 680 nM, respectively.

Take `COc1ccc(-c2c(C)c(C(=O)NC3(C#N)CCOCC3)nn2-c2ccccc2F)cc1`: the Ki at Cannabinoid receptor 2 is 2460 nM; in assay [1] it was over 10 µM; at Cannabinoid receptor 1, 115 nM.

In [1], `Cc1c(C(=O)NC2(C#N)CCOCC2)nn(-c2ccccc2F)c1-c1ccccc1` had an inhibition constant Ki of over 10 µM.

In [1], `Cc1c(C(=O)NC2(C#N)CCCCC2)nn(-c2ccccc2Br)c1-c1ccccc1` had an inhibition constant (Ki) of over 10 µM.

On to `Cc1c(C(=O)NC2(C#N)CCOCC2)nn(-c2cccc(Br)c2)c1-c1ccccc1`, for which, in [1], the inhibitory constant (Ki) was over 10 µM.

With `COc1ccc(-c2c(C)c(C(=O)NC3(C#N)CCCCC3)nn2-c2ccccc2Br)cc1`, the inhibition in assay [2], in assay [3], in [4], in assay [5], in assay [6] and in [7] was under 50% throughout. The inhibition in [8], in [9], in assay [10], in assay [11], in assay [12] and in [13] was under 50% in each case. In addition, the inhibition in assay [14], in assay [15], in assay [16], in assay [17], in assay [18] and in [19] was under 50% each time. Further, the inhibition in [20], in assay [21], in assay [22], in assay [23], in assay [25] and in [26] was under 50% in each case. Also, the inhibition in assay [27], in assay [28], in [29], in [30], in assay [31] and in assay [32] was under 50% throughout. The inhibition in [33], in [34], in [36], in assay [37], in assay [38] and in [39] was under 50% throughout. For the same compound, the inhibition in assay [40], in assay [41] and in assay [42] was under 50% each time. Moreover, the inhibition constant Ki was 2750 nM at Cannabinoid receptor 2; over 10 µM in [1]; 15.7 nM at Cannabinoid receptor 1; 279 nM at Translocator protein; over 10 µM in assay [24]; 597 nM in assay [35]. This compound returned a Ki at D(1B) dopamine receptor of over 10 µM.

For `Cc1c(C(=O)NC2(C#N)CCOCC2)nn(-c2ccccc2I)c1-c1ccccc1`, in assay [1], the inhibition constant (Ki) is over 10 µM.

For the compound `Cc1c(C(=O)N(C)C2(C#N)CCOCC2)nn(-c2ccccc2Cl)c1-c1ccccc1`, the Ki at Cannabinoid receptor 2 is over 10000 nM; in assay [1] it was over 10 µM; at Cannabinoid receptor 1, over 10000 nM; at Translocator protein, 880 nM.

As to `Cc1c(C(=O)NC2(C#N)CCOCC2)nn(-c2ccccc2-c2ccccc2)c1-c1ccccc1`, the Ki in [1] was over 10 µM.

As to `N#Cc1c(C(=O)NC2(C#N)CCOCC2)nn(-c2ccccc2Br)c1-c1ccccc1`, the inhibitory constant (Ki) is over 10000 nM at Cannabinoid receptor 2, over 10 µM in [1], 437 nM at Cannabinoid receptor 1 and 3690 nM on Translocator protein.

`Cc1c(C(=O)NC2(C#N)CCOCC2)nn(-c2ccccc2Br)c1-c1cccc(F)c1`: the Ki at Cannabinoid receptor 2 was over 10000 nM; in assay [1], over 10 µM; at Cannabinoid receptor 1, over 10000 nM.

For the compound `COc1ccc(-c2c(Br)c(C(=O)NC3(C#N)CCOCC3)nn2-c2cccc(Br)c2)cc1`, in assay [1], the Ki is over 10 µM.

For the compound `Cc1c(C(=O)NC2(C#N)CCOCC2)nn(-c2ccccc2Cl)c1-c1ccccc1`, the inhibitory constant (Ki) was over 10000 nM at Cannabinoid receptor 2, over 10 µM in [1], over 10000 nM on Cannabinoid receptor 1 and 436 nM at Translocator protein.

In the case of `COc1ccc(-c2c(C#N)c(C(=O)NC3(C#N)CCOCC3)nn2-c2ccccc2I)cc1`, the inhibition constant (Ki) at Cannabinoid receptor 2 is 2370 nM; in [1] it was over 10 µM; on Cannabinoid receptor 1, over 10000 nM; on Translocator protein, 1920 nM.
